Laboratory results: US20050055748A1, “Stress-responsive genes, regulatory elements, and methods of use for same” (priority 2003, published 2005)
“Also recorded” adds a separate entry of the source.

Legend:
Type in all cases: cell-based, Zea mays
Hi-II maize cells = assay: Growth of Hi-II maize callus cells on media containing sucrose and raffinose, with or without dehydration stress; conditions: for Relative weight gain, Dehydration stressed: dried in a flowhood for 4 h; for Relative weight gain, Dehydration stressed / Relative weight gain, Control: increase in weight relative to initial weight, means of three replicates; for Relative weight gain, Control: no dehydration stress
Description: Table 1. Growth of Hi-II maize cells in culture on media containing sucrose and raffinose. Hi-II cells were weighed, cultured on different media for 4 d, transferred to N6 medium, cultured for another 7 d, and re-weighed. For dehydration stress, Hi-II cells were weighed, cultured on different media for […] , dried in a flowhood for 4 h, subsampled for water content, returned to the initial media for 1 d, transferred to N6 medium, cultured for 7 days, and re-weighed. Growth rates (increase in weight relative to initial weight) and water contents (dry weight basis) are the means of three replicates. Analysis of variance and mean separations were calculated among media within a dehydration stress treatment.
(§1) Maize Hi-II callus cultures were initiated according to Armstrong and Green (1985) from immature embryos isolated from Hi-II maize plants provided by Pioneer. Cultures were incubated in the dark at 25° C. on solid N6 medium containing 2% (w/v) sucrose (Chu et al., 1975) amended with 2 mg/L 2,4-dichlorophenoxyacetic acid, 25 mmol/L L-proline, and 10 μmol/L AgNO3, pH 5.8 (N6S2 medium) and sub-cultured every two weeks onto fresh media. For experimental treatments, approximately 2 g of cells (fresh weight) were added to each 100×15 mm plate. To determine the effect of various sugars and environmental stresses on the expression of ZmGOLS and ZmRAFS genes in maize Hi-II callus cells, callus was cultured on N6 media supplemented with different concentrations of sugars and: a) grown at 25° C. in the dark (control conditions); b) exposed to 42° C. for 24 h (heated); c) exposed to 4° C. for 24 h (chilled); or d) exposed to a current of air at 25° C. in a laminar flow hood for 4 h (dehydrated). To determine the responsiveness of ZmGOLS and ZmRAFS genes to exogenous ABA, calli were grown on media with 1, 10, and 100 μM cis, trans-ABA (Sigma) under control conditions for 1 d prior to harvest and RNA extraction.
Samples of Hi-II cells growing on N6S2 were weighed and placed on N6S2, N6S5, or N6S5 supplemented with 0.1% w/v raffinose. Callus was grown for 4 d at 25° C. on these various media. The callus on a particular medium was separated into two equal sub-samples and the fresh weight obtained. A sub-sample of half of the callus cells per plate for each medium was subjected to dehydration stress by removal from the medium and exposure to a current of air in a flow hood for 4 h. The remaining half of the callus cells were not exposed to stress. After 4 h dehydration stress the callus was placed back on its respective medium for an additional 22 h. Previously stressed and non-stressed calli were then transferred to N6S2 for one week. At the end of the week the calli were weighed again to determine how much growth had occurred during the week. The growth of the cells was expressed as the increase in fresh weight after one week of growth on N6S2 relative to the callus fresh weight 7 days earlier (Dennehey et al.; 1994). This experiment was repeated 3 times.

ZmRAFS1 = ZmRAFS1 gene expression in maize Hi-II callus (northern blot); conditions: for ZmRAFS1 expression, effect of raffinose or galactose: 4% sucrose plus raffinose (0.01-1%) or 0.33% galactose, 42° C. for 1 d (FIG. 8C); for ZmRAFS1 mRNA accumulation with myo-inositol or mannitol in the media (FIG. 8A): 2% sucrose plus 0.01% myo-inositol or 7.8% mannitol, control, dehydrated, 4 or 42° C.
Description: as §1
(§2) Sucrose and raffinose amounts in N6 media were altered, singly for sucrose or in combination with raffinose, to determine if RAFS substrates or the final product of the coordinate action of GOLS and RAFS influenced ZmGOLS and ZmRAFS gene expression. Because it is not known whether sucrose or raffinose are taken up into Hi-II cells directly or if they are hydrolyzed prior to uptake, glucose, fructose, galactose, and melibiose were also supplied. Myo-inositol (1,2,3,5-trans-4,6-hexahydroxy cyclohexane, Sigma), a GOLS substrate, was added to N6S2 media at amounts from 0.01-1% w/v. To determine if gene expression was regulated by osmotic stress, N6S2 media was amended with 0.1% to 7.8% w/v mannitol. Callus cells were also grown on N6 with combinations of sugars and the myo-inositol isomer, scyllo-inositol. All chemicals were sterilized by filtration and added to autoclaved media cooled to 65° C. just prior to pouring the plates. Hi-II callus cells on these various media were maintained under control conditions or subjected to stress (see above) prior to being harvested for sugar or RNA extraction or moisture content analysis. Cells were transferred to amended N6 media for 8 days, the environmental stress (if any) applied, and the cells harvested.
(§3) Total RNA from seeds, regardless of treatment, was extracted according to Wan and Wilkins (1994). Total RNA (20 μg per lane) from seeds was transferred onto positively charged nylon membranes (Amersham Life Science Inc., Arlington Heights, Ill., USA) in 10×SSC (1×SSC is 150 mM NaCl and 15 mM Na citrate pH 7) overnight, the blot dried and UV cross-linked at 50 mJoules on a GS genelinker UV chamber (Bio-Rad Laboratories, Hercules, Calif., USA). After rinsing the membranes for 5 min in 2×SSC, blots were placed in pre-hybridization solution (50% formamide, 5× Denhardt's solution (Denhardt 1966), 100 μg ml^−1 boiled, sheared salmon sperm DNA, 0.2% SDS, 6×SSC pH 7.0, Sambrook et al. 1989) for 4-6 h at 42° C. Randomly labeled, radioactive cDNA probes ([^32P] dCTP) were hybridized to the blots for at least 12 h at the same temperature as pre-hybridization. The primary wash was done in 2×SSC, 0.1% SDS, RT for 5 min, and repeated but at 65° C. for 30 min. The two final high stringency washes were in 0.2×SSC, 0.1% SDS at 65° C. for 30 min each. The hybridized probe was detected by autoradiography using Kodak X-OMAT X-ray film (Eastman-Kodak Ltd.) or on a phosphoimaging screen using a Phosphorlmager (Molecular Dynamics).

ZmGOLS2 = ZmGOLS2 gene expression in maize Hi-II callus (northern blot, RPA); conditions: for ZmGOLS2 mRNA in stressed callus (FIG. 7A): 2% sucrose plus 0.01% myo-inositol or 7.8% mannitol, dehydration 4 h or heat 42° C. 24 h
Description: as §1, §2, §3
The high degree of sequence homology among ZmGOLS genes prompted verification of results from northern blot analysis using RPAs (RPA III, Ambion, Little Rock, Tex., USA). […]

[1] = unstressed cells on N6+2% (w/v) sucrose, 1, 10, 100 μM ABA, 1 d

Q: How did the callus mass accumulation (Hi-II maize cells; 0.1% raffinose in medium with 5% sucrose, unstressed) turn out when `OC[C@H]1O[C@H](OC[C@H]2O[C@H](O[C@]3(CO)O[C@H](CO)[C@@H](O)[C@@H]3O)[C@H](O)[C@@H](O)[C@@H]2O)[C@H](O)[C@@H](O)[C@H]1O` [raffinose] was run?
A: prevented the detrimental effect of high sucrose on callus mass accumulation

Q: What about the “callus growth following dehydration stress” value (Hi-II maize cells; 0.1% w/v raffinose with 5% sucrose, 4 h dehydration) of the same molecule?
A: grew as well as callus that had not been subjected to dehydration; also recorded: capable of alleviating dehydration-induced damage

Q: What about the “ZmRAFS1 expression, effect of raffinose or galactose” value (ZmRAFS1) of the same molecule?
A: may inhibit the expression of ZmRAFS1 upon attaining a sufficient concentration

Q: With `OC[C@@H](O)[C@@H](O)[C@H](O)[C@H](O)CO` [mannitol] as the molecule, how does the “ZmGOLS2 mRNA in stressed callus (FIG. 7A)” value (ZmGOLS2) read?
A: upregulated ZmGOLS2 gene expression when subjected to dehydration but not to heat stress

Q: What about the “ZmGOLS2 transcription, low mannitol” value (ZmGOLS2; dehydrated cells, 0.1-0.5% w/v) of the same molecule?
A: repressed ZmGOLS2 transcription below that present in cells grown on 2% sucrose alone

Q: And the “ZmGOLS2 transcription, very high mannitol” value (ZmGOLS2; dehydrated cells, 7.8% w/v)?
A: upregulated ZmGOLS2 transcription

Q: And the “ZmRAFS1 mRNA accumulation with myo-inositol or mannitol in the media (FIG. 8A)” value (ZmRAFS1)?
A: did not influence ZmRAFS1 gene expression

Q: For `O[C@H]1[C@H](O)[C@@H](O)[C@H](O)[C@@H](O)[C@H]1O` [myo-inositol, 1,2,3,5-trans-4,6-hexahydroxy cyclohexane], which “ZmGOLS2 mRNA in stressed callus (FIG. 7A)” value (ZmGOLS2) is on record?
A: ZmGOLS2 mRNA accumulation

Q: And the “ZmGOLS2 transcription, low myo-inositol” value (ZmGOLS2; dehydrated cells, 2% sucrose, 0.01-0.1% w/v)?
A: upregulated ZmGOLS2 transcription

Q: And the “ZmGOLS2 transcription, high myo-inositol” value (ZmGOLS2; dehydrated cells, 2% sucrose, 1% w/v)?
A: repressed ZmGOLS2 transcription below that on 2% sucrose alone

Q: And the “ZmRAFS1 mRNA accumulation with myo-inositol or mannitol in the media (FIG. 8A)” value (ZmRAFS1)?
A: did not elicit greater ZmRAFS1 mRNA accumulation with the exception of cells exposed to heat shock

Q: For `CC1=CC(=O)CC(C)(C)[C@@]1(O)/C=C/C(C)=C\C(=O)O` [ABA, abscisic acid], which “ZmGOLS2 gene expression in response to applied ABA” value (ZmGOLS2; [1]) is on record?
A: not responsive to ABA

Q: What about the “ZmRAFS1 gene expression in response to applied ABA” value (ZmRAFS1; [1]) of the same molecule?
A: not induced beyond that of 2% sucrose alone

Q: What does the source list for `OC[C@H]1O[C@@](CO)(O[C@H]2O[C@H](CO)[C@@H](O)[C@H](O)[C@H]2O)[C@@H](O)[C@@H]1O` [5% sucrose, sucrose]?
A: Relative weight gain, Dehydration stressed (Hi-II maize cells): 1.37 ± 0.02 b; Relative weight gain, Control (Hi-II maize cells): 1.45 ± 0.04 b

Q: How did the “Relative weight gain, Dehydration stressed” value (Hi-II maize cells) turn out when `OC[C@H]1O[C@@](CO)(O[C@H]2O[C@H](CO)[C@@H](O)[C@H](O)[C@H]2O)[C@@H](O)[C@@H]1O` [2% sucrose, sucrose] was run?
A: 1.35 ± 0.16 b

Q: What about the “Relative weight gain, Control” value (Hi-II maize cells) of the same molecule?
A: 1.89 ± 0.17 a

Q: `O=C[C@H](O)[C@@H](O)[C@@H](O)[C@H](O)CO` [galactose] was tested. Which “ZmRAFS1 expression, effect of raffinose or galactose” value (ZmRAFS1) did it give?
A: as effective as raffinose at repressing ZmRAFS1 expression at equal galactose molarities

Q: How did the “ZmRAFS1 gene expression, effect of sucrose and its monosaccharides” value (ZmRAFS1; heat-stressed callus, 2% (w/v) or greater sucrose (FIG. 8B, 8C)) turn out when `OC[C@H]1O[C@@](CO)(O[C@H]2O[C@H](CO)[C@@H](O)[C@H](O)[C@H]2O)[C@@H](O)[C@@H]1O` [sucrose] was run?
A: up-regulated by sucrose

Q: `O[C@H]1[C@H](O)[C@@H](O)[C@H](O)[C@@H](O)[C@@H]1O` [scyllo-inositol] was tested. Which “ZmGOLS2 expression, low scyllo-inositol with high mannitol” value (ZmGOLS2; dehydrated cells, 2% sucrose (FIG. 7C)) did it give?
A: did not alter the expression of ZmGOLS2 relative to similar concentrations of myo-inositol and mannitol
